Assays:
Format in all cases: binding
Musashi-2 (MSI2) = Musashi-2 (MSI2) (Homo sapiens, UniProt Q96DH6); assay: MST with GFP-tagged protein in HEK293FT lysate; CETSA in HCT116 cells
LIN28A = biological target: T1, LIN28A (Homo sapiens, UniProt Q9H9Z2); assay: MST with GFP-tagged protein in cell lysate
T1 construct: GFP-tagged, HEK293FT lysate
T1 sequence (Q9H9Z2 2-209): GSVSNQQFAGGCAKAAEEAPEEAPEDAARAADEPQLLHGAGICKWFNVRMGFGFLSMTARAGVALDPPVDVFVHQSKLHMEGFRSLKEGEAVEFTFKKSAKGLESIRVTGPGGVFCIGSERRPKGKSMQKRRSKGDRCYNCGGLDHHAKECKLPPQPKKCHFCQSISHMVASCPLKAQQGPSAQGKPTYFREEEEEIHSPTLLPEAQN

HUR = biological target: T2, HUR (Homo sapiens, UniProt Q15717); assay: MST with GFP-tagged protein in cell lysate
T2 construct: gene ELAVL1; GFP-tagged, HEK293FT lysate
T2 sequence (Q15717 2-326): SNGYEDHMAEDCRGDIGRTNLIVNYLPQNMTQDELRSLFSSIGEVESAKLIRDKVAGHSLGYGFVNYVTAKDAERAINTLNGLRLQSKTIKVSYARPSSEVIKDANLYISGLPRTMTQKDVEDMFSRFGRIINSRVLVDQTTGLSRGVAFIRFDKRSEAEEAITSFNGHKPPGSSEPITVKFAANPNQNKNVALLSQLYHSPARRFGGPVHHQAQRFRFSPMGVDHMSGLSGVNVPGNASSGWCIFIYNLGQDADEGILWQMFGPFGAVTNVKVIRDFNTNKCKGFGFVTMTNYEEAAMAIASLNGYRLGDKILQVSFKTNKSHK

Musashi-2 (MSI2), sequence (Q96DH6 whole entry): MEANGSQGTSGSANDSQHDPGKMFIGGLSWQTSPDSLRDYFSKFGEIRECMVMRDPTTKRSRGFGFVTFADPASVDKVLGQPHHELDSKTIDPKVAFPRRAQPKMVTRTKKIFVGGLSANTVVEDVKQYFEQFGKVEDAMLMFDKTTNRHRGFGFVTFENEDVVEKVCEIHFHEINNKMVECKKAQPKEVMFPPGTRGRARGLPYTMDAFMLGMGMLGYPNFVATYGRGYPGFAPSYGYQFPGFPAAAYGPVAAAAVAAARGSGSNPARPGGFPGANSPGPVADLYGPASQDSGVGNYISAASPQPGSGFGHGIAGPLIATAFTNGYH

COc1cc2c(cc1OC)-c1cc3ccc(OC)c(OC)c3c[n+]1CC2 [palmatine]
Kd (Musashi-2 (MSI2)): 17 µM | Kd (LIN28A): 49.6 µM | Kd (HUR): 33.5 µM
